Test results: patent publication US10167262B2, “Herbicidal substituted 3-arylpyrazoles” (FMC CORPORATION, priority 2014, dated 2019)

Assays:
Format in all cases: in vivo
[1] = test system: barnyardgrass (Echinochloa crus-galli); assay: Test A pre-/postemergence greenhouse herbicide test, visual injury rating 0-100
In short: (§1)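 Seeds sown in loam soil–sand blend; preemergence directed soil spray and, simultaneously, postemergence spray on plants 2 to 10 cm tall at one- to two-leaf stage. Compounds formulated in non-phytotoxic solvent mixture with surfactant. Injury rated visually versus untreated controls after ~10 days in greenhouse.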

corn (Zea mays) = assay: as above
In short: as §1

[2] = test system: giant foxtail (Setaria faberii); assay: as above
In short: as §1

[3] = test system: large (Lg) crabgrass (Digitaria sanguinalis); assay: as above
In short: as §1

[4] = test system: morningglory (Ipomoea spp.); assay: as above
In short: as §1

[5] = test system: pigweed (Amaranthus retroflexus); assay: as above
In short: as §1

[6] = test system: velvetleaf (Abutilon theophrasti); assay: as above
In short: as §1

[7] = test system: wheat (Triticum aestivum); assay: as above
In short: as §1

[8] = test system: barnyardgrass (Echinochloa crus-galli); assay: Test B flooded paddy test, plant response rating 0-100; conditions: Flood, 250 g ai/ha; scale 0 to 100 (0 no effect, 100 complete control); 13 to 15 days
In short: (§2)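 Under a constant 3 cm flood, test compounds went directly into the paddy water. Following 13 to 15 days of greenhouse growth, treated species and controls were compared by eye.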

[9] = test system: ducksalad (Heteranthera limosa); assay: as above; conditions: Flood, 250 g ai/ha; scale 0 to 100 (0 no effect, 100 complete control); 13 to 15 days
In short: as §2

rice (Oryza sativa) = assay: as above; conditions: Flood, 250 g ai/ha; scale 0 to 100 (0 no effect, 100 complete control); 13 to 15 days
In short: as §2

[10] = test system: sedge, umbrella (small-flower umbrella sedge, Cyperus difformis); assay: as above; conditions: Flood, 250 g ai/ha; scale 0 to 100 (0 no effect, 100 complete control); 13 to 15 days
In short: as §2

| Compound | Plant response rating, Barnyardgrass [8] | Plant response rating, Ducksalad [9] | Plant response rating, Rice (rice (Oryza sativa)) | Plant response rating, Sedge, Umbrella [10] | Plant response rating (0 to 100 scale), Barnyardgrass ([1]; Postemergence, 125 g ai/ha) | Plant response rating (0 to 100 scale), Barnyardgrass ([1]; Postemergence, 500 g ai/ha) | Barnyardgrass plant response rating (0 = no effect, 100 = complete control) ([1]; Preemergence, 125 g ai/ha) | Plant response rating (0 to 100 scale), Barnyardgrass ([1]; Preemergence, 500 g ai/ha) | Plant response rating (0 to 100 scale), Corn (corn (Zea mays); Postemergence, 125 g ai/ha) | Plant response rating (0 to 100 scale), Corn (corn (Zea mays); Postemergence, 500 g ai/ha) | Corn plant response rating (0 = no effect, 100 = complete control) (corn (Zea mays); Preemergence, 125 g ai/ha) | Plant response rating (0 to 100 scale), Corn (corn (Zea mays); Preemergence, 500 g ai/ha) | Plant response rating (0 to 100 scale), Foxtail, Giant ([2]; Postemergence, 125 g ai/ha) | Plant response rating (0 to 100 scale), Foxtail, Giant ([2]; Postemergence, 500 g ai/ha) | Foxtail, Giant plant response rating (0 = no effect, 100 = complete control) ([2]; Preemergence, 125 g ai/ha) | Plant response rating (0 to 100 scale), Foxtail, Giant ([2]; Preemergence, 500 g ai/ha) | Plant response rating (0 to 100 scale), Crabgrass, Large ([3]; Postemergence, 125 g ai/ha) | Plant response rating (0 to 100 scale), Crabgrass, Large ([3]; Postemergence, 500 g ai/ha) | Crabgrass, Large plant response rating (0 = no effect, 100 = complete control) ([3]; Preemergence, 125 g ai/ha) | Plant response rating (0 to 100 scale), Crabgrass, Large ([3]; Preemergence, 500 g ai/ha) | other results |
| --- | --- | --- | --- | --- | --- | --- | --- | --- | --- | --- | --- | --- | --- | --- | --- | --- | --- | --- | --- | --- | --- |
| CCn1cc(C(=O)c2ccccc2)c(-c2cc(F)cc(C(F)(F)F)c2)n1 [Compound 48] | 0 | 0 | 0 | 0 | – | – | – | – | – | – | – | – | – | – | – | – | – | – | – | – | Plant response rating (0 to 100 scale), Barnyardgrass ([1]; Postemergence, 1000 g ai/ha): 20; Plant response rating (0 to 100 scale), Barnyardgrass ([1]; Preemergence, 1000 g ai/ha): 0; Plant response rating (0 to 100 scale), Corn (corn (Zea mays); Postemergence, 1000 g ai/ha): 0; Plant response rating (0 to 100 scale), Corn (corn (Zea mays); Preemergence, 1000 g ai/ha): 0; Plant response rating (0 to 100 scale), Foxtail, Giant ([2]; Postemergence, 1000 g ai/ha): 20; Plant response rating (0 to 100 scale), Foxtail, Giant ([2]; Preemergence, 1000 g ai/ha): 0; Plant response rating (0 to 100 scale), Crabgrass, Large ([3]; Postemergence, 1000 g ai/ha): 20; Plant response rating (0 to 100 scale), Crabgrass, Large ([3]; Preemergence, 1000 g ai/ha): 0; Plant response rating (0 to 100 scale), Morningglory ([4]; Postemergence, 1000 g ai/ha): 20; Plant response rating (0 to 100 scale), Morningglory ([4]; Preemergence, 1000 g ai/ha): 0; Plant response rating (0 to 100 scale), Pigweed ([5]; Postemergence, 1000 g ai/ha): 90; Plant response rating (0 to 100 scale), Pigweed ([5]; Preemergence, 1000 g ai/ha): 100; Plant response rating (0 to 100 scale), Velvetleaf ([6]; Postemergence, 1000 g ai/ha): 90; Plant response rating (0 to 100 scale), Velvetleaf ([6]; Preemergence, 1000 g ai/ha): 80; Plant response rating (0 to 100 scale), Wheat ([7]; Postemergence, 1000 g ai/ha): 0; Plant response rating (0 to 100 scale), Wheat ([7]; Preemergence, 1000 g ai/ha): 0 |
| CCn1cc(C(=O)c2cccs2)c(-c2cc(F)cc(Cl)c2)n1 [Compound 24] | 0 | 0 | 0 | 0 | 0 | 10 | 0 | 0 | 0 | 0 | 0 | 0 | 0 | 10 | 0 | 0 | 10 | 20 | 0 | 20 | Plant response rating (0 to 100 scale), Morningglory ([4]; Postemergence, 125 g ai/ha): 0; Plant response rating (0 to 100 scale), Morningglory ([4]; Postemergence, 500 g ai/ha): 10; Morningglory plant response rating (0 = no effect, 100 = complete control) ([4]; Preemergence, 125 g ai/ha): 0; Plant response rating (0 to 100 scale), Morningglory ([4]; Preemergence, 500 g ai/ha): 0; Plant response rating (0 to 100 scale), Pigweed ([5]; Postemergence, 125 g ai/ha): 80; Plant response rating (0 to 100 scale), Pigweed ([5]; Postemergence, 500 g ai/ha): 100; Pigweed plant response rating (0 = no effect, 100 = complete control) ([5]; Preemergence, 125 g ai/ha): 60; Plant response rating (0 to 100 scale), Pigweed ([5]; Preemergence, 500 g ai/ha): 80; Plant response rating (0 to 100 scale), Velvetleaf ([6]; Postemergence, 125 g ai/ha): 40; Plant response rating (0 to 100 scale), Velvetleaf ([6]; Postemergence, 500 g ai/ha): 90; Velvetleaf plant response rating (0 = no effect, 100 = complete control) ([6]; Preemergence, 125 g ai/ha): 0; Plant response rating (0 to 100 scale), Velvetleaf ([6]; Preemergence, 500 g ai/ha): 0; Plant response rating (0 to 100 scale), Wheat ([7]; Postemergence, 125 g ai/ha): 0; Plant response rating (0 to 100 scale), Wheat ([7]; Postemergence, 500 g ai/ha): 0; Wheat plant response rating (0 = no effect, 100 = complete control) ([7]; Preemergence, 125 g ai/ha): 0; Plant response rating (0 to 100 scale), Wheat ([7]; Preemergence, 500 g ai/ha): 0 |
| O=C(c1ccccc1)c1cn(C(=O)Cc2ccccc2)nc1-c1cc(Cl)cc(Cl)c1 [Compound 4] | 0 | 0 | 0 | 0 | 0 | 0 | 0 | 0 | 0 | 0 | 0 | 0 | 0 | 10 | 0 | 30 | 0 | 0 | 0 | 20 | Plant response rating (0 to 100 scale), Morningglory ([4]; Postemergence, 125 g ai/ha): 0; Plant response rating (0 to 100 scale), Morningglory ([4]; Postemergence, 500 g ai/ha): 0; Morningglory plant response rating (0 = no effect, 100 = complete control) ([4]; Preemergence, 125 g ai/ha): 0; Plant response rating (0 to 100 scale), Morningglory ([4]; Preemergence, 500 g ai/ha): 0; Plant response rating (0 to 100 scale), Pigweed ([5]; Postemergence, 125 g ai/ha): 70; Plant response rating (0 to 100 scale), Pigweed ([5]; Postemergence, 500 g ai/ha): 80; Pigweed plant response rating (0 = no effect, 100 = complete control) ([5]; Preemergence, 125 g ai/ha): 80; Plant response rating (0 to 100 scale), Pigweed ([5]; Preemergence, 500 g ai/ha): 90; Plant response rating (0 to 100 scale), Velvetleaf ([6]; Postemergence, 125 g ai/ha): 80; Plant response rating (0 to 100 scale), Velvetleaf ([6]; Postemergence, 500 g ai/ha): 90; Velvetleaf plant response rating (0 = no effect, 100 = complete control) ([6]; Preemergence, 125 g ai/ha): 70; Plant response rating (0 to 100 scale), Velvetleaf ([6]; Preemergence, 500 g ai/ha): 90; Plant response rating (0 to 100 scale), Wheat ([7]; Postemergence, 125 g ai/ha): 0; Plant response rating (0 to 100 scale), Wheat ([7]; Postemergence, 500 g ai/ha): 0; Wheat plant response rating (0 = no effect, 100 = complete control) ([7]; Preemergence, 125 g ai/ha): 0; Plant response rating (0 to 100 scale), Wheat ([7]; Preemergence, 500 g ai/ha): 0 |
| O=C(c1ccccc1)c1cn(CC2CC2)nc1-c1cc(Cl)cc(Cl)c1 [Compound 41] | 0 | 0 | 0 | 30 | 0 | 0 | 0 | 0 | 0 | 0 | 0 | 0 | 0 | 0 | 0 | 0 | 0 | 0 | 0 | 0 | Plant response rating (0 to 100 scale), Morningglory ([4]; Postemergence, 125 g ai/ha): 0; Plant response rating (0 to 100 scale), Morningglory ([4]; Postemergence, 500 g ai/ha): 0; Morningglory plant response rating (0 = no effect, 100 = complete control) ([4]; Preemergence, 125 g ai/ha): 0; Plant response rating (0 to 100 scale), Morningglory ([4]; Preemergence, 500 g ai/ha): 0; Plant response rating (0 to 100 scale), Pigweed ([5]; Postemergence, 125 g ai/ha): 30; Plant response rating (0 to 100 scale), Pigweed ([5]; Postemergence, 500 g ai/ha): 60; Pigweed plant response rating (0 = no effect, 100 = complete control) ([5]; Preemergence, 125 g ai/ha): 0; Plant response rating (0 to 100 scale), Pigweed ([5]; Preemergence, 500 g ai/ha): 60; Plant response rating (0 to 100 scale), Velvetleaf ([6]; Postemergence, 125 g ai/ha): 40; Plant response rating (0 to 100 scale), Velvetleaf ([6]; Postemergence, 500 g ai/ha): 80; Velvetleaf plant response rating (0 = no effect, 100 = complete control) ([6]; Preemergence, 125 g ai/ha): 0; Plant response rating (0 to 100 scale), Velvetleaf ([6]; Preemergence, 500 g ai/ha): 60; Plant response rating (0 to 100 scale), Wheat ([7]; Postemergence, 125 g ai/ha): 0; Plant response rating (0 to 100 scale), Wheat ([7]; Postemergence, 500 g ai/ha): 0; Wheat plant response rating (0 = no effect, 100 = complete control) ([7]; Preemergence, 125 g ai/ha): 0; Plant response rating (0 to 100 scale), Wheat ([7]; Preemergence, 500 g ai/ha): 0 |
